Source: US9302991B2, “Arylamide derivatives as TTX-S blockers” (RaQualia Pharma Inc., priority 2010, dated 2016)

How the values were obtained:
human Nav1.7 channels = biological target: T1, human Nav1.7 channels (Homo sapiens, UniProt Q15858); test: FRET assay, human Nav1.7 (EFS on FDSS); type: cell-based; details: CHO cells expressing human Nav1.7, read-out: IC50 against Nav1.7
T1 construct: expressed in transfected cells; host or cells: CHO
Method in brief: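 IC50 was derived from normalized 440 nm fluorescence ratios of the EFS-evoked membrane-potential response read on FDSS. Recombinant CHO cells were sequentially dye-loaded with coumarin/oxonol FRET pair at room temperature in pH 7.4 buffer before compound addition.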

human Nav1.3 channels = biological target: T2, human Nav1.3 channels (Homo sapiens, UniProt Q9NY46); test: FRET assay, human Nav1.3 (EFS on FDSS); type: cell-based; details: HEK293 cells expressing human Nav1.3, read-out: IC50 against Nav1.3
T2 construct: expressed in transfected cells; host or cells: HEK293
Method in brief: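 HEK293 cells expressing the channel, loaded with 10 microM CC2-DMPE then 15 microM DiSBAC2(3) plus 0.555 mM VABSC-1 in pH 7.4 HEPES buffer at room temperature. Membrane potential changes evoked by electrical field stimulation after compound addition; IC50 from 440 nm-normalized FRET ratios.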

T1 sequence (Q15858 whole entry): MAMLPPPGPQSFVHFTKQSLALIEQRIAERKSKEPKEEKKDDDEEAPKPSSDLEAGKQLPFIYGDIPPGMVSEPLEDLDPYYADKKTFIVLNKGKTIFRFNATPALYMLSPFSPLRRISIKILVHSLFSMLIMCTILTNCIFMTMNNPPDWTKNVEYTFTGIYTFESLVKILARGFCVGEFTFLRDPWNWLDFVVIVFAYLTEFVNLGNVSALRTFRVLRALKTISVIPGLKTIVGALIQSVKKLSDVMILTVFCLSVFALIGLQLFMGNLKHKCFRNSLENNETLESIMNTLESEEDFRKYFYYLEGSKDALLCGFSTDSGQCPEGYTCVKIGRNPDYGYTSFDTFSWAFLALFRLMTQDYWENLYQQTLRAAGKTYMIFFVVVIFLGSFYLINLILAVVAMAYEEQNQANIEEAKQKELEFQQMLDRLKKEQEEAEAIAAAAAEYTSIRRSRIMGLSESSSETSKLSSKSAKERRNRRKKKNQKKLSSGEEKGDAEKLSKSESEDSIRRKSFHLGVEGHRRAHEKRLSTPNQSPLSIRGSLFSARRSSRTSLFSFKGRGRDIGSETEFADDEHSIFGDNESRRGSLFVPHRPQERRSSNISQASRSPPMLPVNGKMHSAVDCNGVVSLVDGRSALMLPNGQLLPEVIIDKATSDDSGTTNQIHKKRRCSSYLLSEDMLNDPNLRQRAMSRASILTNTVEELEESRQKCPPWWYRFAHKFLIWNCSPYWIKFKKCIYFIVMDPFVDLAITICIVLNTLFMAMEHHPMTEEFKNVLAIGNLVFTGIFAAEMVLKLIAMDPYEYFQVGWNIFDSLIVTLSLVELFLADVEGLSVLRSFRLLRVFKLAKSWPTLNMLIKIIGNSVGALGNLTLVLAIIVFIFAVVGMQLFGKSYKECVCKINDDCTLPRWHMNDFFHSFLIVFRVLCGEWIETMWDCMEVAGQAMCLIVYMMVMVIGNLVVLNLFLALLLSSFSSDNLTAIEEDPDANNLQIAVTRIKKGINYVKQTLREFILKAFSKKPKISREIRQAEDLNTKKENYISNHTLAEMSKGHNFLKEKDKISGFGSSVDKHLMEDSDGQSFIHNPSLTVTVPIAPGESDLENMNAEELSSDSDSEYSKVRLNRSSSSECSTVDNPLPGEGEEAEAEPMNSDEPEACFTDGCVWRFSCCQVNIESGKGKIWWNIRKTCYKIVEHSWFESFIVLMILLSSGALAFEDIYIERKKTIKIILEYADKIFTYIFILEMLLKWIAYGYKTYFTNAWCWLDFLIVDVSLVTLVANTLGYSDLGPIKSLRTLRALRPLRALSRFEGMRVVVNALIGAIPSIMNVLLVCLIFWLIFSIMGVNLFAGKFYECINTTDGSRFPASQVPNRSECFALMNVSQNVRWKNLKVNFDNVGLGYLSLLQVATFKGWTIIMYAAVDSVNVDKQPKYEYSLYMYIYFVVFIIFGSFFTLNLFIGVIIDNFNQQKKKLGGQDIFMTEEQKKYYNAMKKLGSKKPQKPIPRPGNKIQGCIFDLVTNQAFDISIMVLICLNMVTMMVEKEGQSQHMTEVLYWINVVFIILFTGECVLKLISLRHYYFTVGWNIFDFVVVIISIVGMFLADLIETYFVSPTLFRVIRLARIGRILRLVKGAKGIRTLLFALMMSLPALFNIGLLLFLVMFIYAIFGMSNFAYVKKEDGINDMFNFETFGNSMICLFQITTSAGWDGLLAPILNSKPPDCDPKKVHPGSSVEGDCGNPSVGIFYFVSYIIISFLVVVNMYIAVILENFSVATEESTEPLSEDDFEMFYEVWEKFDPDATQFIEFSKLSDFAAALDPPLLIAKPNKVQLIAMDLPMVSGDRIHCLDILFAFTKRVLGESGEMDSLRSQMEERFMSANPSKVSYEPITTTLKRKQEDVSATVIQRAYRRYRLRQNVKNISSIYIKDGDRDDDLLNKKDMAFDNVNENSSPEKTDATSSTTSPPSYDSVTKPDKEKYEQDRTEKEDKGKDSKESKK
T2 sequence (Q9NY46 whole entry): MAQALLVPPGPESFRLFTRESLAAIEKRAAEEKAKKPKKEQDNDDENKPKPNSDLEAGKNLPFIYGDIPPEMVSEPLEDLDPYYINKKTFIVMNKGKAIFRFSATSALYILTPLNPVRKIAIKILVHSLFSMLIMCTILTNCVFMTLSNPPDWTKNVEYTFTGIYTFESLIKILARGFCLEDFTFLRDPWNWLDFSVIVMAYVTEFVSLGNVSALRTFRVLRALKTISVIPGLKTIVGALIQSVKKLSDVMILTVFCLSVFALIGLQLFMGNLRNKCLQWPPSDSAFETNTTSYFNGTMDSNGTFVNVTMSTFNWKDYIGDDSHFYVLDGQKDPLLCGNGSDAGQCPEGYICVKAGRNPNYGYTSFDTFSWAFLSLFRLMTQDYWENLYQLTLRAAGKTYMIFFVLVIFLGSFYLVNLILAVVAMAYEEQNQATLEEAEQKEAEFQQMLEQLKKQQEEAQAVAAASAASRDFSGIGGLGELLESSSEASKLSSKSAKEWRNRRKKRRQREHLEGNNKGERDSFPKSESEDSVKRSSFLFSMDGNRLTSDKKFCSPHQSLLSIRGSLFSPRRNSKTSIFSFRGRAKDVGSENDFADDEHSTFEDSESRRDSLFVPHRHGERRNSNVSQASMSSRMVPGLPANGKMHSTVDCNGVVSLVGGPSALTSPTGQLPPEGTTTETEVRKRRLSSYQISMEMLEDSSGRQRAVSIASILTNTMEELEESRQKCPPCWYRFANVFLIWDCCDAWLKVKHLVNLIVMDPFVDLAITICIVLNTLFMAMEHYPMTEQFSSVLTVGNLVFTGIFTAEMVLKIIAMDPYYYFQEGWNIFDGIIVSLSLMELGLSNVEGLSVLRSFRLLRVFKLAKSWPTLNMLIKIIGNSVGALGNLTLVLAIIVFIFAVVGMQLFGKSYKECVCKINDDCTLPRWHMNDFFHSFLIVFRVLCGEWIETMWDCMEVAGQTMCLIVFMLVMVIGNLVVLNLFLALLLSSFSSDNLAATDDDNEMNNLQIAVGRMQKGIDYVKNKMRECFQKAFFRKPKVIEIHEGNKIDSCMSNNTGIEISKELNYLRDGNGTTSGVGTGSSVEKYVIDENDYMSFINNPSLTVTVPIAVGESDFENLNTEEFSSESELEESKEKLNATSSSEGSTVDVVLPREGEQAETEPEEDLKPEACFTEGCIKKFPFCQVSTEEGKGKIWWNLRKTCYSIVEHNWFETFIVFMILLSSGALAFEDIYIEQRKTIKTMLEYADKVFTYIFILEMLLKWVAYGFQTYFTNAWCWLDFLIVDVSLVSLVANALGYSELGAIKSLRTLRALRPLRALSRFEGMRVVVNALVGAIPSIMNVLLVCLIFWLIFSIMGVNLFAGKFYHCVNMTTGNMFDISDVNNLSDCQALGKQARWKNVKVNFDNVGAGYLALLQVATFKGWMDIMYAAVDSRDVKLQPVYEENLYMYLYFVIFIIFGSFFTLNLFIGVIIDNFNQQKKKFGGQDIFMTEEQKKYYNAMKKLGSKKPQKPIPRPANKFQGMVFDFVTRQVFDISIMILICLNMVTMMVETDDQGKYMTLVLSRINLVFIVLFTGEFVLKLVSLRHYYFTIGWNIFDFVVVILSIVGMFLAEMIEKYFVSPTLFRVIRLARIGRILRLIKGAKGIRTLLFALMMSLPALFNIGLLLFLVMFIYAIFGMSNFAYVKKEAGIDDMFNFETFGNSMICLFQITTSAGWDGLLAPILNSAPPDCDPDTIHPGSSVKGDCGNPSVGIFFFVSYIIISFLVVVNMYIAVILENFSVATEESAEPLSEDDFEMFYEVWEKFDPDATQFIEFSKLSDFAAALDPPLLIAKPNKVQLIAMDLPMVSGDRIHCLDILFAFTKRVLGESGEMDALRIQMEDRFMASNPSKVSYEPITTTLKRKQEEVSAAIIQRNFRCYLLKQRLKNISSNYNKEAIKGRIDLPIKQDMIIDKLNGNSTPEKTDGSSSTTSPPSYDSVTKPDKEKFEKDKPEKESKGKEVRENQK

Row | SMILES | IC50 (human Nav1.7 channels) [nM] | IC50 (human Nav1.3 channels) [nM]
1 | COc1nc(OCC(F)(F)F)ccc1CNC(=O)c1ccnc(NC(C)=O)c1 [Example 148, 2-acetamido-N-((2-methoxy-6-(2,2,2-trifluoroethoxy)pyridin-3-yl)methyl)isonicotinamide] | < 1000 | < 1000
2 | CCC(=O)Nc1cc(C(=O)NCc2ccc(OCC(F)(F)F)nc2OC)ccn1 [Example 149, N-((2-methoxy-6-(2,2,2-trifluoroethoxy)pyridin-3-yl)methyl)-2-propionamidoisonicotinamide] | < 1000 | < 1000
3 | CCC(=O)Nc1cc(C(=O)NCc2ccc(OCC(F)(F)F)nc2OC)cc(C)n1 [Example 150, N-((2-methoxy-6-(2,2,2-trifluoroethoxy)pyridin-3-yl)methyl)-2-methyl-6-propionamidoisonicotinamide] | < 1000 | < 1000
4 | O=C(NCc1ccc(OCC(F)(F)F)nc1)c1ccnc(NC(=O)C2CC2)c1 [Example 152, 2-(cyclopropanecarboxamido)-N-((6-(2,2,2-trifluoroethoxy)pyridin-3-yl)methyl)isonicotinamide] | < 1000 | < 1000
5 | CCC(=O)Nc1cc(C(=O)NCc2ccc(OCC(F)(F)F)nc2)cc(C)n1 [Example 153, 2-methyl-6-propionamido-N-((6-(2,2,2-trifluoroethoxy)pyridin-3-yl)methyl)isonicotinamide] | < 1000 | < 1000
6 | CC(C)C(=O)Nc1cc(C(=O)NCc2ccc(OCC(F)(F)F)nc2)ccn1 [Example 169, 2-isobutyramido-N-((6-(2,2,2-trifluoroethoxy)pyridin-3-yl)methyl)isonicotinamide] | < 1000 | < 1000
7 | COc1nc(OCC(F)(F)F)ccc1CNC(=O)c1ccnc(NC(=O)C(C)C)c1 [Example 171, 2-isobutyramido-N-((2-methoxy-6-(2,2,2-trifluoroethoxy)pyridin-3-yl)methyl)isonicotinamide] | < 1000 | < 1000
8 | CCC(=O)Nc1nc(C)cc(C(=O)NCc2ccc(OCC(F)(F)F)nc2OC)n1 [Example 180, N-((2-methoxy-6-(2,2,2-trifluoroethoxy)pyridin-3-yl)methyl)-6-methyl-2-propionamidopyrimidine-4-carboxamide] | < 1000 | < 1000
9 | COc1nc(OCC(F)(F)F)ccc1CNC(=O)c1cc(C)nc(NC(C)=O)c1 [Example 241, 2-acetamido-N-((2-methoxy-6-(2,2,2-trifluoroethoxy)pyridin-3-yl)methyl)-6-methylisonicotinamide] | < 1000 | < 1000
10 | CCOc1nc(OCC(F)(F)F)ccc1CNC(=O)c1cc(C)nc(NC(=O)CC)n1 [Example 359, N-((2-ethoxy-6-(2,2,2-trifluoroethoxy)pyridin-3-yl)methyl)-6-methyl-2-propionamidopyrimidine-4-carboxamide] | < 1000 | < 1000
11 | CCOc1nc(OCC(F)(F)F)ccc1CNC(=O)c1cc(C)nc(NC(=O)C(C)C)n1 [Example 360, N-((2-ethoxy-6-(2,2,2-trifluoroethoxy)pyridin-3-yl)methyl)-2-isobutyramido-6-methylpyrimidine-4-carboxamide] | < 1000 | < 1000
12 | CC(=O)Nc1nc(C)cc(C(=O)NCc2cnc(OCC(F)(F)F)c(C)c2)n1 [Example 363, 2-acetamido-6-methyl-N-((5-methyl-6-(2,2,2-trifluoroethoxy)pyridin-3-yl)methyl)pyrimidine-4-carboxamide] | < 1000 | < 1000
13 | CCC(=O)Nc1nc(C)cc(C(=O)NCc2cnc(OCC(F)(F)F)c(C)c2)n1 [Example 364, 6-methyl-N-((5-methyl-6-(2,2,2-trifluoroethoxy)pyridin-3-yl)methyl)-2-propionamidopyrimidine-4-carboxamide] | < 1000 | < 1000
14 | CCC(=O)Nc1cc(C(=O)NCc2cnc(OCC(F)(F)F)c(C)c2)ccn1 [Example 368, N-((5-methyl-6-(2,2,2-trifluoroethoxy)pyridin-3-yl)methyl)-2-propionamidoisonicotinamide] | < 1000 | < 1000
15 | Cc1cc(CNC(=O)c2ccnc(NC(=O)C3CC3)c2)cnc1OCC(F)(F)F [Example 369, 2-(cyclopropanecarboxamido)-N-((5-methyl-6-(2,2,2-trifluoroethoxy)pyridin-3-yl)methyl)isonicotinamide] | < 1000 | < 1000
16 | CC(=O)Nc1cc(C(=O)NCc2cnc(OCC(F)(F)F)c(C)c2)cc(C)n1 [Example 371, 2-acetamido-6-methyl-N-((5-methyl-6-(2,2,2-trifluoroethoxy)pyridin-3-yl)methyl)isonicotinamide] | < 1000 | < 1000
17 | CCC(=O)Nc1cc(C(=O)NCc2cnc(OCC(F)(F)F)c(C)c2)cc(C)n1 [Example 372, 2-methyl-N-((5-methyl-6-(2,2,2-trifluoroethoxy)pyridin-3-yl)methyl)-6-propionamidoisonicotinamide] | < 1000 | < 1000

Row | SMILES | IC50 (human Nav1.7 channels) [nM] | IC50 (human Nav1.3 channels) [nM]
18 | CCC(=O)Nc1nccc(C(=O)NCc2cnc(OCC(F)(F)F)c(Cl)c2)n1 [Example 410, N-((5-chloro-6-(2,2,2-trifluoroethoxy)pyridin-3-yl)methyl)-2-propionamidopyrimidine-4-carboxamide] | < 1000 | < 1000
19 | O=C(NCc1cnc(OCC(F)(F)F)c(Cl)c1)c1ccnc(NC(=O)C2CC2)n1 [Example 411, N-((5-chloro-6-(2,2,2-trifluoroethoxy)pyridin-3-yl)methyl)-2-(cyclopropanecarboxamido)pyrimidine-4-carboxamide] | < 1000 | < 1000
20 | COc1cc(CNC(=O)c2cc(C)nc(NC(=O)C(C)C)n2)cnc1OCC(F)(F)F [Example 443, 2-isobutyramido-N-((5-methoxy-6-(2,2,2-trifluoroethoxy)pyridin-3-yl)methyl)-6-methylpyrimidine-4-carboxamide] | < 1000 | < 1000
21 | CCC(=O)Nc1cc(C(=O)NCc2cccc(OCC(F)(F)F)n2)cc(C)n1 [Example 467, 2-methyl-6-propionamido-N-((6-(2,2,2-trifluoroethoxy)pyridin-2-yl)methyl)isonicotinamide] | < 1000 | < 1000
22 | Cc1cc(C(=O)NCc2ccc(OCC(F)(F)F)nc2)cc(NC(=O)C(C)C)n1 [Example 483, 2-isobutyramido-6-methyl-N-((6-(2,2,2-trifluoroethoxy)pyridin-3-yl)methyl)isonicotinamide] | < 1000 | < 1000
23 | COc1cc(CNC(=O)c2cc(C)nc(NC(=O)C(C)C)c2)cnc1OCC(F)(F)F [Example 492, 2-isobutyramido-N-((5-methoxy-6-(2,2,2-trifluoroethoxy)pyridin-3-yl)methyl)-6-methylisonicotinamide] | < 1000 | < 1000
24 | COc1nc(OCC(F)(F)F)ccc1CNC(=O)c1cc(C)nc(NC(=O)C(C)C)c1 [Example 494, 2-isobutyramido-N-((2-methoxy-6-(2,2,2-trifluoroethoxy)pyridin-3-yl)methyl)-6-methylisonicotinamide] | < 1000 | < 1000
25 | CCC(=O)Nc1cc(C(=O)NCc2cccc(OC(F)(F)F)c2)ccn1 [Example 523, 2-propionamido-N-(3-(trifluoromethoxy)benzyl)isonicotinamide] | < 1000 | < 1000
26 | O=C(NCc1cccc(OC(F)(F)F)c1)c1ccnc(NC(=O)C2CC2)c1 [Example 524, 2-(cyclopropanecarboxamido)-N-(3-(trifluoromethoxy)benzyl)isonicotinamide] | < 1000 | < 1000
27 | CC(=O)Nc1cc(C(=O)NCc2cccc(OC(F)(F)F)c2)cc(C)n1 [Example 525, 2-acetamido-6-methyl-N-(3-(trifluoromethoxy)benzyl)isonicotinamide] | < 1000 | < 1000
28 | CCC(=O)Nc1cc(C(=O)NCc2cccc(OC(F)(F)F)c2)cc(C)n1 [Example 526, 2-methyl-6-propionamido-N-(3-(trifluoromethoxy)benzyl)isonicotinamide] | < 1000 | < 1000
29 | CC(C)C(=O)Nc1cc(C(=O)NCc2cccc(OC(F)(F)F)c2)ccn1 [Example 527, 2-isobutyramido-N-(3-(trifluoromethoxy)benzyl)isonicotinamide] | < 1000 | < 1000
30 | Cc1cc(C(=O)NCc2cccc(OC(F)(F)F)c2)cc(NC(=O)C(C)C)n1 [Example 528, 2-isobutyramido-6-methyl-N-(3-(trifluoromethoxy)benzyl)isonicotinamide] | < 1000 | < 1000
31 | CC(C)C(=O)Nc1cc(C(=O)NCc2cccc(C(F)(F)F)c2)ccn1 [Example 533, 2-isobutyramido-N-(3-(trifluoromethyl)benzyl)isonicotinamide] | < 1000 | < 1000
32 | Cc1cc(C(=O)NCc2cccc(C(F)(F)F)c2)cc(NC(=O)C(C)C)n1 [Example 534, 2-isobutyramido-6-methyl-N-(3-(trifluoromethyl)benzyl)isonicotinamide] | < 1000 | < 1000
33 | Cc1cc(CNC(=O)c2ccnc(NC(=O)C3CC3)n2)cnc1OCC(F)(F)F [Example 564, 2-(cyclopropanecarboxamido)-N-((5-methyl-6-(2,2,2-trifluoroethoxy)pyridin-3-yl)methyl)pyrimidine-4-carboxamide] | < 1000 | < 1000
34 | CC(=O)Nc1cc(C(=O)NCc2cc(C)cc(OC(F)(F)F)c2)ccn1 [Example 597, 2-acetamido-N-(3-methyl-5-(trifluoromethoxy)benzyl)isonicotinamide] | < 1000 | < 1000
